Data as given in US10647732B2, “N-annulated perylene diimide dimers with active pyrrolic N—H bonds” (UTI Limited Partnership, priority 2018, dated 2020).
Values after ≈ are worked out from the molar mass of the structure shown.

Assays:
[1] = Cyclic voltammetry in dichloromethane solution; format: physicochemical
Experimental: The electron affinity, 3.8 eV, and ionization potential, 5.8 eV, were determined from the onset of reduction (ca. −1.0V) and oxidation (ca. 1.0V), respectively, using a conversion value of 4.8. These values are similar to those of previously reported PDI dimers and indicate that compound 3 is suitable for use as an electron acceptor and transporting material in organic electronic devices. An analogous normalized CV plot of compound 4 is provided in FIG. 2B, where no oxidation is observed due to the electron withdrawing nature of the BOC group.
Cyclic Voltammetry (CV): All electrochemical measurements were performed using a CH Instruments potentiostat in a standard three-electrode configuration equipped with a silver wire pseudo-reference, platinum wire counter electrode and glassy carbon working electrode. The cyclic voltammetry experiments were performed in an anhydrous solution of dichloromethane (CH2Cl2) with ˜0.1 M tetrabutylammonium-hexafluorophosphate (TBAPF6) supporting electrolyte. Samples were scanned at a rate of 100 mV/s following a dry N2 purge to deoxygenate the solution, unless otherwise noted. Solution CV measurements were carried out with a sample concentration of ˜0.5 mg/mL in CH2Cl2, unless otherwise noted. Estimations of the energy levels were obtained by correlating the onset (Eox Fc/Fc+, Ered Fc/Fc+) to the normal hydrogen electrode (NHE), assuming a HOMO energy level of 4.80 eV for Fc/Fc+: E(HOMO)=−(Eox+4.80), E(LUMO)=−(Ered+4.80) UV-Visible Spectroscopy (UV/vis): All absorption measurements were recorded using an Agilent Technologies Cary 60 UV-vis spectrometer at room temperature. All solution UV/vis experiments were run in chloroform (CHCl3) using 2 mm quartz cuvettes and diluted 1% wt/v solutions, unless otherwise noted. Thin-films were prepared by spin-coating 1% wt/v solutions from CHCl3 onto Corning glass micro slides, unless otherwise noted. Prior to use, glass slides were cleaned with soap and water, acetone and isopropanol, and followed by UV/ozone treatment using a Novascan UV/ozone cleaning system.

[2] = Thermal stability by TGA and DSC; format: physicochemical
Experimental: Decomposition occurred above 390° C. as determined by thermal gravimetric analysis (TGA, FIG. 4A) and no phase transitions were observed up to 350° C. as determined by differential scanning calorimetry (DSC) (see FIG. 5A). This stability is similar to that of compound 5. TGA of compound 4 is illustrated in FIG. 4B. The TGA were run under N2 at 2° C. per min.
The impact of thermal annealing on the thin-film optical absorption profile is an important factor for use of such dimers. The BOC functionalized derivative 4 was synthesized at least in part to enable facile solution processing of the PDI dimer and generation of 3 in the solid film through thermal deprotection after film formation. FIGS. 5A-5C are DSC plots for compounds 3, 4 and 5, respectively, run under N2 at 10° C. per min. For clarity, the second and third trials of each cooling run and the third trial of each heating run is omitted for all species because the data is indistinguishable from previous runs. During the first heating trial of compound 4, an endothermic peak is clearly present in the plot with an onset occurring at 160° C. This was assumed to be the temperature where cleavage of the protecting group begins to occur and this is confirmed by the fact that this feature is not present in the second heating trial, which has a profile strongly resembling that of the heated NH Dimer 3 and further confirmed by bulk deprotection of compound 4 in an oven at 180° C. The first heating trial of compound 3 features a smooth, downward sloping line. […] This feature is due to a cold-crystallization and has previously been observed in similar molecules.
Thus, films were thermally annealed above this temperature (e.g., at 200° C.) to ensure the BOC protecting group was removed. Films of all three compounds 3-5 were studied.

[3] = physchem; settings: organic solvent or mixture
[4] = Solubility in organic solvents; settings: organic solvent or mixture

In the case of `CCC(CC)n1c(=O)c2ccc3c4c(-c5cc6c(=O)n(C(CC)CC)c(=O)c7cc8[nH]c9cc%10c(=O)n(C(CC)CC)c(=O)c%11ccc%12c5c(c67)c8c9c%12c%11%10)cc5c(=O)n(C(CC)CC)c(=O)c6cc7[nH]c8cc(c1=O)c2c3c8c7c4c56` [Compound 3, tPDI2N—H], the “oxidation waves E1/2” value ([1]; dichloromethane solution, hexafluorophosphate electrolyte) is reported as 1.1 V vs. Fc/Fc+, the ionization potential ([1]; from onset of oxidation (ca. 1.0V), conversion value of 4.8) is reported as 5.8 eV and the electron affinity ([1]; from onset of reduction (ca. -1.0V), conversion value of 4.8) is reported as 3.8 eV. For the same molecule, the decomposition temperature ([2]; TGA under N2 at 2° C. per min) was “above 390 °C” and the solubility [3] was roughly 5000 µg/mL (≈ 4.61 mM).

For `CCC(CC)n1c(=O)c2ccc3c4c(-c5cc6c(=O)n(C(CC)CC)c(=O)c7cc8c9c(c5c5ccc%10c(=O)n(C(CC)CC)c(=O)c%11cc(c9c5c%10%11)n8C(=O)OC(C)(C)C)c67)cc5c(=O)n(C(CC)CC)c(=O)c6cc7c(c4c56)c4c3c2c(cc4n7C(=O)OC(C)(C)C)c1=O` [Compound 4, tPDI2N—BOC], the “onset of endothermic peak (cleavage of the protecting group begins)” value ([2]; DSC first heating trial, under N2 at 10° C. per min) was 160 °C and the “loss of the BOC group” value ([2]; TGA and DSC) was roughly 170 °C.

`CCCCCCn1c2cc3c(=O)n(C(CC)CC)c(=O)c4ccc5c6c(-c7cc8c(=O)n(C(CC)CC)c(=O)c9cc%10c%11c(c7c7ccc%12c(=O)n(C(CC)CC)c(=O)c%13cc(c%11c7c%12%13)n%10CCCCCC)c89)cc7c(=O)n(C(CC)CC)c(=O)c8cc1c(c6c78)c2c5c43` [Compound 5, tPDI2N-Hex] showed a solubility [4] greater than 50000 µg/mL.
